Our source for the herbicidal activity values is patent US10479777B2, “Herbicidal azines” (BASF SE, priority 2013, dated 2019).

SMILES strings stand for the structures.

Common to all, as to experiment: greenhouse test, pre-emergence treatment
Holding throughout (type): in vivo
What all share (settings): scale from 0 to 100

For assay [1], the system named is Abutilon theophrasti. The source says: (§1) The culture containers used were plastic flowerpots containing loamy sand with approximately 3.0% of humus as the substrate. The seeds of the test plants were sown separately for each species.
(§2) For the pre-emergence treatment, the active ingredients, which had been suspended or emulsified in water, were applied directly after sowing by means of finely distributing nozzles. The containers were irrigated gently to promote germination and growth and subsequently covered with transparent plastic hoods until the plants had rooted. This cover caused uniform germination of the test plants, unless this had been impaired by the active ingredients. For the post-emergence treatment, the test plants were first grown to a height of 3 to 15 cm, depending on the plant habit, and only then treated with the active ingredients which had been suspended or emulsified in water. For this purpose, the test plants were either sown directly and grown in the same containers, or they were first grown separately as seedlings and transplanted into the test containers a few days prior to treatment.
(§3) Depending on the species, the plants were kept at 10-25° C. or 20-35° C., respectively. The test period extended over 2 to 4 weeks. During this time, the plants were tended, and their response to the individual treatments was evaluated.
(§4) Evaluation was carried out using a scale from 0 to 100. 100 means no emergence of the plants, or complete destruction of at least the aerial moieties, and 0 means no damage, or normal course of growth. A moderate herbicidal activity is given at values of at least 60, a good herbicidal activity is given at values of at least 70, and a very good herbicidal activity is given at values of at least 85.
(§5) The plants used in the greenhouse experiments were of the following species: […]

For assay [2], the system named is Amaranthus retroflexus.
Source text: as §1, §2, §3, §4, §5

The subject of assay [3] is Setaria faberi.
Source text: as §1, §2, §3, §4, §5

Assay [4] has as its system Echinocloa crus-galli.
Source text: as §1, §2, §3, §4, §5

The subject of assay [5] is Apera spica-venti.
Source text: as §1, §2, §3, §4, §5

On to `CCC(C)(F)c1nc(N)nc(Nc2nc(F)c(F)cc2F)n1` (racemic) [Example 14], for which the herbicidal activity result in assay [1] (62.5 g/ha), in assay [2] (62.5 g/ha) and in assay [3] (62.5 g/ha) was “very good (a very good herbicidal activity is given at values of at least 85)” each time.
On to `Nc1nc(Nc2nc(F)c(F)c(Cl)c2F)nc(C2(Cl)CCCC2)n1` [Example 11], for which the herbicidal activity entry in assay [1] (500 g/ha), in assay [2] (500 g/ha) and in assay [3] (500 g/ha) was “very good (a very good herbicidal activity is given at values of at least 85)” each time.
Regarding `Nc1nc(Nc2nc(F)c(F)c(Cl)c2F)nc(C2(F)CCCC2)n1` [Example 12], the herbicidal activity entry in assay [2] (125 g/ha), in assay [4] (125 g/ha) and in assay [3] (125 g/ha) was “very good (a very good herbicidal activity is given at values of at least 85)” throughout.
In the case of `CCC(C)(F)c1nc(N)nc(Nc2nc(F)c(F)c(Cl)c2F)n1` (centres unmarked) [Example 13], the herbicidal activity entry in assay [2] (62.5 g/ha), in assay [4] (62.5 g/ha) and in assay [3] (62.5 g/ha) was “very good (a very good herbicidal activity is given at values of at least 85)” each time.
`Nc1nc(Nc2nc(F)c(F)c(Cl)c2F)nc(C2CCCC2)n1` [Example 17]: the herbicidal activity result in assay [2] (250 g/ha) is “good (a good herbicidal activity is given at values of at least 70)”.
`COC(C)(C)c1nc(N)nc(Nc2nc(F)c(F)c(Cl)c2F)n1` [Example 22]: the herbicidal activity entry in assay [2] (250 g/ha) is given as “very good (a very good herbicidal activity is given at values of at least 85)”.
With `Cc1c(F)c(F)nc(Nc2nc(N)nc(C(C)(C)F)n2)c1F` [Example 29], the herbicidal activity result in assay [1] (125 g/ha), in assay [2] (125 g/ha) and in assay [3] (125 g/ha) was “very good (a very good herbicidal activity is given at values of at least 85)” in each case.
Consider `CCC(F)(CC)c1nc(N)nc(Nc2nc(F)c(F)c(Cl)c2F)n1` [Example 30], for which the herbicidal activity result in assay [2] (250 g/ha), in assay [4] (250 g/ha) and in assay [3] (250 g/ha) was “very good (a very good herbicidal activity is given at values of at least 85)” each time.
On to `COc1c(F)c(F)nc(Nc2nc(N)nc(C(C)(C)F)n2)c1F` [Example 31], for which the herbicidal activity result in assay [1] (250 g/ha), in assay [2] (250 g/ha) and in assay [3] (250 g/ha) was “very good (a very good herbicidal activity is given at values of at least 85)” each time.
`CC(C)C(F)c1nc(N)nc(Nc2nc(F)c(F)c(Cl)c2F)n1` (centres unmarked) [Example 32]: the herbicidal activity entry in assay [2] (125 g/ha), in assay [4] (125 g/ha) and in assay [3] (125 g/ha) was “very good (a very good herbicidal activity is given at values of at least 85)” in each case.
On to `CC(C)(F)c1nc(N)nc(Nc2nc(F)c(F)c(OS(C)(=O)=O)c2F)n1` [Example 37], for which the herbicidal activity entry is “very good (a very good herbicidal activity is given at values of at least 85)” in assay [2] (250 g/ha) and “good (a good herbicidal activity is given at values of at least 70)” in assay [5] (250 g/ha).
With `CC(C)(F)c1nc(N)nc(Nc2c(F)ccnc2F)n1` [Example 48], in assay [2] (125 g/ha), the herbicidal activity entry is “very good (a very good herbicidal activity is given at values of at least 85)”.
For `Nc1nc(Nc2c(F)c(F)nc(F)c2F)nc(C(F)(F)F)n1` [Example 50], the herbicidal activity result in assay [2] (500 g/ha) is on record as “very good (a very good herbicidal activity is given at values of at least 85)”; in assay [5] (500 g/ha) it was “good (a good herbicidal activity is given at values of at least 70)”.
Regarding `CCC(C)(F)c1nc(N)nc(Nc2c(F)c(F)nc(F)c2F)n1` (centres unmarked) [Example 52], the herbicidal activity result in assay [1] (250 g/ha), in assay [2] (250 g/ha) and in assay [4] (250 g/ha) was “very good (a very good herbicidal activity is given at values of at least 85)” each time.
Regarding `CC(C)(F)c1nc(N)nc(Nc2c(F)cncc2F)n1` [Example 54], the herbicidal activity entry in assay [2] (62 g/ha) and in assay [5] (62 g/ha) was “very good (a very good herbicidal activity is given at values of at least 85)” throughout.
For `CC(C)(C#N)c1nc(N)nc(Nc2c(F)c(F)nc(F)c2F)n1` [Example 57], the herbicidal activity result in assay [1] (250 g/ha) and in assay [2] (250 g/ha) was “very good (a very good herbicidal activity is given at values of at least 85)” throughout.
With `Nc1nc(Nc2c(F)c(F)nc(F)c2F)nc(C2(Cl)CCCC2)n1` [Example 58], the herbicidal activity entry in assay [2] (250 g/ha), in assay [4] (250 g/ha) and in assay [3] (250 g/ha) was “very good (a very good herbicidal activity is given at values of at least 85)” throughout.
Regarding `COC(C)c1nc(N)nc(Nc2c(F)c(F)nc(F)c2F)n1` (centres unmarked) [Example 61], the herbicidal activity entry in assay [1] (500 g/ha) and in assay [2] (500 g/ha) was “very good (a very good herbicidal activity is given at values of at least 85)” each time.
Consider `CC(C)(C)c1nc(N)nc(Nc2c(F)c(F)nc(F)c2F)n1` [Example 62], for which the herbicidal activity entry in assay [1] (250 g/ha), in assay [2] (250 g/ha) and in assay [3] (250 g/ha) was “very good (a very good herbicidal activity is given at values of at least 85)” throughout.
Regarding `CCC(F)c1nc(N)nc(Nc2c(F)c(F)nc(F)c2F)n1` (centres unmarked) [Example 63], the herbicidal activity result in assay [1] (125 g/ha), in assay [2] (125 g/ha) and in assay [3] (125 g/ha) was “very good (a very good herbicidal activity is given at values of at least 85)” each time.
In the case of `CC1CCC(c2nc(N)nc(Nc3c(F)c(F)nc(F)c3F)n2)CC1` (centres unmarked) [Example 64], the herbicidal activity result in assay [1] (250 g/ha), in assay [2] (250 g/ha) and in assay [3] (250 g/ha) was “very good (a very good herbicidal activity is given at values of at least 85)” throughout.
On to `Nc1nc(Nc2c(F)c(F)nc(F)c2F)nc(C2(F)CCCC2)n1` [Example 66], for which the herbicidal activity entry in assay [1] (250 g/ha), in assay [2] (250 g/ha) and in assay [3] (250 g/ha) was “very good (a very good herbicidal activity is given at values of at least 85)” in each case.
As for `CC1(c2nc(N)nc(Nc3c(F)c(F)nc(F)c3F)n2)CCCC1` [Example 67], in assay [2] (250 g/ha), the herbicidal activity result is recorded as “very good (a very good herbicidal activity is given at values of at least 85)”.
Turning to `CC1(c2nc(N)nc(Nc3c(F)c(F)nc(F)c3F)n2)CCCCC1` [Example 68], the herbicidal activity entry in assay [2] (250 g/ha) is on record as “very good (a very good herbicidal activity is given at values of at least 85)”.
For `CCC(C)c1nc(N)nc(Nc2c(F)c(F)nc(F)c2F)n1` (centres unmarked) [Example 69], the herbicidal activity entry in assay [1] (125 g/ha) and in assay [2] (125 g/ha) was “very good (a very good herbicidal activity is given at values of at least 85)” throughout.
For the molecule `CCC(F)(CC)c1nc(N)nc(Nc2c(F)c(F)nc(F)c2F)n1` [Example 71], the herbicidal activity result in assay [1] (250 g/ha), in assay [2] (250 g/ha) and in assay [3] (250 g/ha) was “very good (a very good herbicidal activity is given at values of at least 85)” each time.
